Measurements from US8969392B2, “Pesticide composition comprising propamocarb-fosetylate and an insecticidally active substance” (Bayer Cropscience AG, priority 2006, dated 2015).

Columns and labels:
Myzus persicae = Myzus persicae test (cabbage leaf dip, mortality); format: in vivo; conditions: mortality after 6 days, cabbage leaves dipped
Method: (§1) To produce a suitable preparation of active compound, 1 part by weight of active compound is mixed with the stated amount of solvent and emulsifier, and the concentrate is diluted with emulsifier-containing water to the desired concentration.
Cabbage leaves (Brassica oleracea) which are heavily infested by the green peach aphid (Myzus persicae) are treated by being dipped into the preparation of the active compound at the desired concentration.
After a period of time of 6 days, the mortality is determined. 100% means that all the […] have been killed; 0% means that none of the […] have been killed.

Phaedon cochleariae = Phaedon cochleariae test (cabbage leaf dip, larvae, mortality); format: in vivo; conditions: mortality after 4 days, cabbage leaves dipped
Method: as §1
Cabbage leaves (Brassica oleracea) are treated by being dipped into the preparation of the active compound at the desired concentration and are infested with larvae of the mustard beetle Phaedon cochleariae as long as the leaves are still moist.
After a period of time of 4 days, the mortality is determined. 100% means that all the […] have been killed; 0% means that none of the […] have been killed.

Plutella xylostella = Plutella xylostella test (cabbage leaf dip, larvae, mortality); format: in vivo; conditions: mortality after 6 days, cabbage leaves dipped
Method: as §1
Cabbage leaves (Brassica oleracea) are treated by being dipped into the preparation of the active compound at the desired concentration and are infested with larvae of the diamond black moth Plutella xylostella as long as the leaves are still moist.
After a period of time of 6 days, the mortality is determined. 100% means that all the caterpillars have been killed; 0% means that none of the caterpillars have been killed.

Plasmopara viticola = conditions: straight use of the compound; WO-99/42468; cited from earlier work

In the case of `CN/C(=N\[N+](=O)[O-])NCc1cnc(Cl)s1` [Clothianidin, clothianidin], the “Efficacy (%)” value (Myzus persicae; rate of application 0.8 ppm) is reported as 75%.

With `O=[N+]([O-])NC1=NCCN1Cc1ccc(Cl)nc1` [Imidacloprid, imidacloprid] the “Efficacy (%)” value (Phaedon cochleariae; rate of application 20 ppm) was 80%.

With `CCCOC(=O)NCCCN(C)C.CCO[PH](=O)O` [Propamocarb-fosetylate, dimethyl-[3-(propoxycarbonylamino)propyl]ammonium-O-ethylphosphonate] the “Efficacy (%)” value (Myzus persicae; rate of application 200 ppm) was 0%, the “Efficacy (%)” value (Phaedon cochleariae; rate of application 200 ppm) was 5% and the “Efficacy (%)” value (Plutella xylostella; rate of application 200 ppm) was 0%. The “fungicide activity to control Plasmopara viticola” value (Plasmopara viticola) was “Some fungicide activity”.

With `N#C/N=C1\SCCN1Cc1ccc(Cl)nc1` [thiacloprid] the “Efficacy (%)” value (Plutella xylostella; rate of application 20 ppm) was 20%.
